Test results as given in patent US20170053081A1, “METHODS AND MATERIALS FOR CHARACTERIZING INTESTINAL BARRIER FUNCTION” (THE ARIZONA BOARD OF REGENTS ON BEHALF OF THE UNIVERSITY OF …, priority 2014, published 2017).

What was measured:
[1] = test system: intestinal barrier function; assay: Intestinal barrier function biomarker panel (plasma FABP2, claudin 3, citrulline) in children after cardiopulmonary bypass; conditions: for Association with changes in post-operative FABP2, claudin3, or citrulline: caudal or spinal, post-operative pain management, p>0.05
Experimental: A panel of plasma biomarkers was used to reflect intestinal epithelial cellular and paracellular structure (FABP2 and claudin 3), as well as cellular and paracellular function (citrulline and DSPT). In particular, twenty children aged newborn to 18 years undergoing repair or palliation of congenital heart disease with CPB were examined. Plasma FABP2, claudin 3, and citrulline were measured after induction of general anesthesia, and at 6, 12, 24, 48, and 120 hours post-operatively.
(§1) Inclusion criteria were age greater than 37 weeks corrected gestational age and a diagnosis of CHD requiring surgical repair or palliation with the use of CPB. Exclusion criteria were known pre-existing gastrointestinal dysfunction, immune dysfunction, active intracranial bleeding, and anuric renal failure. All operations were performed by two surgeons. CPB and anesthetic regimens were per usual care.
Blood samples for measurement of plasma FABP2, claudin 3, and citrulline were collected from indwelling intravascular catheters pre-operatively after induction of general anesthesia, but prior to CPB, and at 6, 12, 24, 48, and ≧120 hours post-operatively. […]
Plasma concentrations of human FABP2 were evaluated by ELISA according to the manufacturer's protocol (Standards range: 10 000 pg/ml to 156.25 pg/ml) (R&D Systems, Minneapolis, Minn.). Claudin 3 concentration was evaluated by ELISA in plasma from patients according to manufacturer's instruction (standard range from 20 ng/ml to 0.312 ng/ml) (Uscn life science Inc, Wuhan, China). […]
Samples were separated on Phenomenex Luna HILIC 200A SB-C18, 3 μm, 150×2.00 mm column (Torrance, Calif.) using Paradigm MS4B-multi-dimensional separations module (Michrom BioResources, Inc., Auburn, Calif.). […] Full injection loop (20 μl) was used to introduce 2 μl sample diluted with 18 μl of solvent B. AB SCIEX API 3000 triple-quadrupole mass spectrometer (Applied Biosystems, Foster City, Calif.) controlled by Analyst 1.5.1 in-line with the HPLC was used for citrulline detection and quantitative analysis.

plasma FABP2 = assay: Serial plasma FABP2 (ELISA) in children after cardiopulmonary bypass for CHD, by treatment factor; conditions: children after CPB; for Association of infusion with elevation in plasma FABP2 over time: vasoactive infusions, any dose, p<0.01
Experimental: as §1
Blood samples for measurement of plasma FABP2, claudin 3, and citrulline were collected from indwelling intravascular catheters pre-operatively after induction of general anesthesia, but prior to CPB, and at 6, 12, 24, 48, and ≧120 hours post-operatively. Final samples at ≧120 hours were collected between 120 and 168 hours post-operatively to evaluate the return to baseline values. Control samples were obtained intra-operatively from the CPB circuits prior to connection to the patient. […]
Clinical data included candidate factors likely to alter intestinal barrier function. […] Vasoactive-inotrope score (VIS) was determined at time of sample collection and was previously validated (see, e.g., Gaies, et al., Pediatric critical care medicine: a journal of the Society of Critical Care Medicine and the World Federation of Pediatric Intensive and Critical Care Societies 2010; 11:234-8).
Plasma concentrations of human FABP2 were evaluated by ELISA according to the manufacturer's protocol (Standards range: 10 000 pg/ml to 156.25 pg/ml) (R&D Systems, Minneapolis, Minn.). Claudin 3 concentration was evaluated by ELISA in plasma from patients according to manufacturer's instruction (standard range from 20 ng/ml to 0.312 ng/ml) (Uscn life science Inc, Wuhan, China).
Data were analyzed using STATA SE/11 software. […] As citrulline values were normally distributed, the effect of binary variables on citrulline were evaluated with a Student's t-test. […] The effect continuous and categorical variables over time on repeated log-transformed plasma FABP2, log-transformed claudin 3, and citrulline was evaluated with multi-level mixed-effects linear regression. […]

SMILES	Association with changes in post-operative FABP2, claudin3, or citrulline [1]	Association of infusion with elevation in plasma FABP2 over time (plasma FABP2)	Risk for intestinal barrier dysfunction ([1]; children undergoing CPB, post-operative use to maintain mean arterial blood pressure)	Association with elevated plasma FABP2 (plasma FABP2; p=0.03)
CCCCN1CCCCC1C(=O)Nc1c(C)cccc1C (stereo not drawn) [bupivicaine]	not associated with changes	–	–	–
CN1CC[C@]23c4c5ccc(O)c4O[C@H]2[C@@H](O)C=C[C@H]3[C@H]1C5 [morphine]	not associated with changes	–	–	–
NC(=O)CC[C@@H]1NC(=O)[C@H](Cc2ccccc2)NC(=O)[C@H](Cc2ccc(O)cc2)NC(=O)[C@@H](N)CSSC[C@@H](C(=O)N2CCC[C@H]2C(=O)N[C@@H](CCCN=C(N)N)C(=O)NCC(N)=O)NC(=O)[C@H](CC(N)=O)NC1=O [vasopressin]	–	associated with	increase the risk for intestinal barrier dysfunction	–
CNC[C@H](O)c1ccc(O)c(O)c1 [epinephrine]	–	associated with	–	associated with elevated plasma FABP2
